Test results: ChEMBL document CHEMBL4507317, “Data for DCP probe BAY-899” (2021)

Columns and labels:
[1] = biological target: Serine/threonine-protein kinase WNK1 (Homo sapiens) (UniProt Q9H4A3); conditions: Compound concentration 1000.0 nM
[2] = system: ALK tyrosine kinase receptor (Homo sapiens), Q9UM73 [L1196M]; conditions: Compound concentration 1000.0 nM
[3] = biological target: SRSF protein kinase 2 (Homo sapiens) (UniProt P78362); conditions: Compound concentration 1000.0 nM
[4] = biological target: Casein kinase I isoform gamma-3 (Homo sapiens) (UniProt Q9Y6M4); conditions: Compound concentration 1000.0 nM
[5] = biological target: Mitogen-activated protein kinase kinase kinase 20 (Homo sapiens) (UniProt Q9NYL2); conditions: Compound concentration 1000.0 nM
[6] = biological target: Alpha-2C adrenergic receptor (Homo sapiens) (UniProt P18825); conditions: Compound concentration 10.0 uM
[7] = biological target: RAC-gamma serine/threonine-protein kinase (Homo sapiens) (UniProt Q9Y243); conditions: Compound concentration 1000.0 nM
[8] = biological target: Ribosomal protein S6 kinase beta-1 (Homo sapiens) (UniProt P23443); conditions: Compound concentration 1000.0 nM
[9] = biological target: Serine/threonine-protein kinase PLK2 (Homo sapiens) (UniProt Q9NYY3); conditions: Compound concentration 1000.0 nM
[10] = biological target: Mast/stem cell growth factor receptor Kit (Homo sapiens) (UniProt P10721); conditions: Compound concentration 1000.0 nM
Sequence of Mast/stem cell growth factor receptor Kit (Homo sapiens) (P10721 whole entry): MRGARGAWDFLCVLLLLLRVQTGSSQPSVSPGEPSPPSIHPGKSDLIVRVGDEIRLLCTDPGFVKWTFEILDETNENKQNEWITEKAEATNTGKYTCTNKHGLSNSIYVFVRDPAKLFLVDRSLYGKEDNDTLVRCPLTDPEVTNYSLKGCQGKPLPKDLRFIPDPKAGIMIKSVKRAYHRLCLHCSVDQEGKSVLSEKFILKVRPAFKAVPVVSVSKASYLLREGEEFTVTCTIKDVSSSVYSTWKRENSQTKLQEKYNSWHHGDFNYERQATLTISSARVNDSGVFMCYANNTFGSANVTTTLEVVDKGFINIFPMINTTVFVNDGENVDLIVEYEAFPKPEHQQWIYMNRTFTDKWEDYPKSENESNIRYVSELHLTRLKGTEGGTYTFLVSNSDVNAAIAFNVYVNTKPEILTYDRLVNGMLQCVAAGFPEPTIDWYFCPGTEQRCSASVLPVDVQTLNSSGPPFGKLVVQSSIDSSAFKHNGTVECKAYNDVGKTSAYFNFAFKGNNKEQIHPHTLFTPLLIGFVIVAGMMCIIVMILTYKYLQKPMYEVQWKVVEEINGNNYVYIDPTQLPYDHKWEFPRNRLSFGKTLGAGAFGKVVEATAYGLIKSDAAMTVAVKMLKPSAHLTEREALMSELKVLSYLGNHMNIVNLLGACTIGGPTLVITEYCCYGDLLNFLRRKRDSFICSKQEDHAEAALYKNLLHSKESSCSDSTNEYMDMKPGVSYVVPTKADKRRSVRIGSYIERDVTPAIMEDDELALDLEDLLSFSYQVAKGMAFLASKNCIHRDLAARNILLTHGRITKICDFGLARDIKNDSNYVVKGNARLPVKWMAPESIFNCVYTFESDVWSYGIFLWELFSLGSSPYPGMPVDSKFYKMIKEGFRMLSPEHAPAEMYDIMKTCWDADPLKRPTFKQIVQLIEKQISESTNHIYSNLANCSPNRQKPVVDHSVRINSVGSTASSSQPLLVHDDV

[11] = system: eIF-2-alpha kinase GCN2 (Homo sapiens), Q9P2K8 [S808G]; conditions: Compound concentration 1000.0 nM
[12] = biological target: 5-hydroxytryptamine receptor 6 (Homo sapiens) (UniProt P50406); conditions: Compound concentration 10.0 uM
[13] = system: Tyrosine-protein kinase ABL1 (Homo sapiens), P00519 [Q252H]; conditions: Compound concentration 1000.0 nM
[14] = biological target: GABA-A receptor; anion channel (Rattus norvegicus) (UniProt O09028+P15431+P18506+P18508+P19969+P20236+P23574+P23576+P28471+P28473+P30191+P62813+P63079+P63138+Q91ZM7+Q9ES14); conditions: Compound concentration 10.0 uM
[15] = biological target: Cyclin-dependent kinase 5 (Homo sapiens) (UniProt Q00535); conditions: Compound concentration 1000.0 nM
[16] = biological target: Serine/threonine-protein kinase 33 (Homo sapiens) (UniProt Q9BYT3); conditions: Compound concentration 1000.0 nM
[17] = biological target: NT-3 growth factor receptor (Homo sapiens) (UniProt Q16288); conditions: Compound concentration 1000.0 nM
[18] = biological target: Aurora kinase A (Homo sapiens) (UniProt O14965); conditions: Compound concentration 1000.0 nM
[19] = biological target: Serine/threonine-protein kinase 17A (Homo sapiens) (UniProt Q9UEE5); conditions: Compound concentration 1000.0 nM
[20] = biological target: Calcium/calmodulin-dependent protein kinase type 1G (Homo sapiens) (UniProt Q96NX5); conditions: Compound concentration 1000.0 nM
[21] = biological target: Cyclin-dependent kinase 8 (Homo sapiens) (UniProt P49336); conditions: Compound concentration 1000.0 nM
Sequence of Cyclin-dependent kinase 8 (Homo sapiens) (P49336 whole entry): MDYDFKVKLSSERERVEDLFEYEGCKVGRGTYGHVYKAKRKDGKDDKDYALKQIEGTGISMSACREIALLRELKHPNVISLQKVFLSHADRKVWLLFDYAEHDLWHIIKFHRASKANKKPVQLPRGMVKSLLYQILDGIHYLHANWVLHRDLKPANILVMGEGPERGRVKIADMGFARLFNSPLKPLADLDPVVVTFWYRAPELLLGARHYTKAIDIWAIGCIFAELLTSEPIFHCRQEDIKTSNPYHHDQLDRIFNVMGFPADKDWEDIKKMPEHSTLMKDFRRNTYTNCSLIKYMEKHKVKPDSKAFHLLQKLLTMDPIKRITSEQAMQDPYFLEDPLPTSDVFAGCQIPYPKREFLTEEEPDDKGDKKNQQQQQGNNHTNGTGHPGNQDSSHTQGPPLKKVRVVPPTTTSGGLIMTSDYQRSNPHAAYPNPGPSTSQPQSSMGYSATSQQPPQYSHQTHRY

[22] = biological target: Eukaryotic translation initiation factor 2-alpha kinase 1 (Homo sapiens) (UniProt Q9BQI3); conditions: Compound concentration 1000.0 nM
[23] = biological target: Serine/threonine-protein kinase Nek4 (Homo sapiens) (UniProt P51957); conditions: Compound concentration 1000.0 nM
[24] = biological target: Serine/threonine-protein kinase MARK1 (Homo sapiens) (UniProt Q9P0L2); conditions: Compound concentration 1000.0 nM
[25] = biological target: Receptor tyrosine-protein kinase erbB-4 (Homo sapiens) (UniProt Q15303); conditions: Compound concentration 1000.0 nM
[26] = biological target: STE20/SPS1-related proline-alanine-rich protein kinase (Homo sapiens) (UniProt Q9UEW8); conditions: Compound concentration 1000.0 nM
[27] = system: Fibroblast growth factor receptor 3 (Homo sapiens), P22607 [G697C]; conditions: Compound concentration 1000.0 nM
[28] = biological target: cGMP-dependent protein kinase 1 (Homo sapiens) (UniProt Q13976); conditions: Compound concentration 1000.0 nM
Sequence of cGMP-dependent protein kinase 1 (Homo sapiens) (Q13976 whole entry): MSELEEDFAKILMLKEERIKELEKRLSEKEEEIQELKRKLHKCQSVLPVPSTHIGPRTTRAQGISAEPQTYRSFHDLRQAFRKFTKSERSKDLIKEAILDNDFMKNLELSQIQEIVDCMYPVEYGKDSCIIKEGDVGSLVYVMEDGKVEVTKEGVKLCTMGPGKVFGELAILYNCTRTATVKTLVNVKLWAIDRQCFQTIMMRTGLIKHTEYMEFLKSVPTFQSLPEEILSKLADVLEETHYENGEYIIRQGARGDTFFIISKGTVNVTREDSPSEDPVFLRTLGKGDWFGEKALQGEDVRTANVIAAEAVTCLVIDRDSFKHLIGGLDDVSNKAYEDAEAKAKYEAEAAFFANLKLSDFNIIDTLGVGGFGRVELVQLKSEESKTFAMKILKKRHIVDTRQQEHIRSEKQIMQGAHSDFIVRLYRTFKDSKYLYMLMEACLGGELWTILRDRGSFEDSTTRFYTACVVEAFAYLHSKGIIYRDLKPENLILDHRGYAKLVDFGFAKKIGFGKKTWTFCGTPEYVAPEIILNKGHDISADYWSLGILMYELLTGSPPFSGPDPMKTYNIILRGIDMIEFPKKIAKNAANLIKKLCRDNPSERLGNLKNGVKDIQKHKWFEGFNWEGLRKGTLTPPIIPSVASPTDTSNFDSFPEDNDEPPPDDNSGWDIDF

[29] = biological target: 5-hydroxytryptamine receptor 2C (Homo sapiens) (UniProt P28335); conditions: Compound concentration 10.0 uM
[30] = biological target: Casein kinase I isoform gamma-2 (Homo sapiens) (UniProt P78368); conditions: Compound concentration 1000.0 nM
[31] = biological target: Testis-specific serine/threonine-protein kinase 1 (Homo sapiens) (UniProt Q9BXA7); conditions: Compound concentration 1000.0 nM
[32] = system: Tyrosine-protein kinase ABL1 (Homo sapiens), P00519 [Q252H]; conditions: Compound concentration 1000.0 nM; remark: listed apart in the source
[33] = system: Tyrosine-protein kinase ABL1 (Homo sapiens), P00519 [T315I]; conditions: Compound concentration 1000.0 nM
[34] = biological target: Tyrosine-protein kinase Fgr (Homo sapiens) (UniProt P09769); conditions: Compound concentration 1000.0 nM
[35] = biological target: Tyrosine-protein kinase CSK (Homo sapiens) (UniProt P41240); conditions: Compound concentration 1000.0 nM
Sequence of Tyrosine-protein kinase CSK (Homo sapiens) (P41240 2-450 limits assumed): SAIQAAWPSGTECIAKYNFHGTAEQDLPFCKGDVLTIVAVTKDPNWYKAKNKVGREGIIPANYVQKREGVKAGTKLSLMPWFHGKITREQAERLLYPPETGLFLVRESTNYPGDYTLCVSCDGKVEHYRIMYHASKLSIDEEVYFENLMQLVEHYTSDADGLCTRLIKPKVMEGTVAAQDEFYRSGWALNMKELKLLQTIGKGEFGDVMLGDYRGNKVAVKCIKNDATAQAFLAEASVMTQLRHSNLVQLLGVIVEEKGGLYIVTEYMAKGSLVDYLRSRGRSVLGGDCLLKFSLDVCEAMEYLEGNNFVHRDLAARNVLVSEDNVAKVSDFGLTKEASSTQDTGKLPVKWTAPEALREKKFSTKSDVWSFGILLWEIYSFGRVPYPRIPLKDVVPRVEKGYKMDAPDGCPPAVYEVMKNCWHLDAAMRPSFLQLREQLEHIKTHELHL

[36] = biological target: Macrophage colony-stimulating factor 1 receptor (Homo sapiens) (UniProt P07333); conditions: Compound concentration 1000.0 nM
[37] = biological target: Cyclin-dependent kinase-like 5 (Homo sapiens) (UniProt O76039); conditions: Compound concentration 1000.0 nM
[38] = biological target: Casein kinase I isoform alpha-like (Homo sapiens) (UniProt Q8N752); conditions: Compound concentration 1000.0 nM
[39] = biological target: 5-hydroxytryptamine receptor 2B (Homo sapiens, UniProt P41595); conditions: Compound concentration 10.0 uM
[40] = biological target: Calcium/calmodulin-dependent protein kinase kinase 2 (Homo sapiens) (UniProt Q96RR4); conditions: Compound concentration 1000.0 nM
[41] = biological target: Homeodomain-interacting protein kinase 1 (Homo sapiens) (UniProt Q86Z02); conditions: Compound concentration 1000.0 nM
[42] = biological target: Serine/threonine-protein kinase D2 (Homo sapiens) (UniProt Q9BZL6); conditions: Compound concentration 1000.0 nM
[43] = biological target: Mitogen-activated protein kinase kinase kinase 9 (Homo sapiens) (UniProt P80192); conditions: Compound concentration 1000.0 nM
[44] = biological target: Sodium-dependent serotonin transporter (Homo sapiens) (UniProt P31645); conditions: Compound concentration 10.0 uM

Sequence of Serine/threonine-protein kinase WNK1 (Homo sapiens) (Q9H4A3 whole entry, looked up): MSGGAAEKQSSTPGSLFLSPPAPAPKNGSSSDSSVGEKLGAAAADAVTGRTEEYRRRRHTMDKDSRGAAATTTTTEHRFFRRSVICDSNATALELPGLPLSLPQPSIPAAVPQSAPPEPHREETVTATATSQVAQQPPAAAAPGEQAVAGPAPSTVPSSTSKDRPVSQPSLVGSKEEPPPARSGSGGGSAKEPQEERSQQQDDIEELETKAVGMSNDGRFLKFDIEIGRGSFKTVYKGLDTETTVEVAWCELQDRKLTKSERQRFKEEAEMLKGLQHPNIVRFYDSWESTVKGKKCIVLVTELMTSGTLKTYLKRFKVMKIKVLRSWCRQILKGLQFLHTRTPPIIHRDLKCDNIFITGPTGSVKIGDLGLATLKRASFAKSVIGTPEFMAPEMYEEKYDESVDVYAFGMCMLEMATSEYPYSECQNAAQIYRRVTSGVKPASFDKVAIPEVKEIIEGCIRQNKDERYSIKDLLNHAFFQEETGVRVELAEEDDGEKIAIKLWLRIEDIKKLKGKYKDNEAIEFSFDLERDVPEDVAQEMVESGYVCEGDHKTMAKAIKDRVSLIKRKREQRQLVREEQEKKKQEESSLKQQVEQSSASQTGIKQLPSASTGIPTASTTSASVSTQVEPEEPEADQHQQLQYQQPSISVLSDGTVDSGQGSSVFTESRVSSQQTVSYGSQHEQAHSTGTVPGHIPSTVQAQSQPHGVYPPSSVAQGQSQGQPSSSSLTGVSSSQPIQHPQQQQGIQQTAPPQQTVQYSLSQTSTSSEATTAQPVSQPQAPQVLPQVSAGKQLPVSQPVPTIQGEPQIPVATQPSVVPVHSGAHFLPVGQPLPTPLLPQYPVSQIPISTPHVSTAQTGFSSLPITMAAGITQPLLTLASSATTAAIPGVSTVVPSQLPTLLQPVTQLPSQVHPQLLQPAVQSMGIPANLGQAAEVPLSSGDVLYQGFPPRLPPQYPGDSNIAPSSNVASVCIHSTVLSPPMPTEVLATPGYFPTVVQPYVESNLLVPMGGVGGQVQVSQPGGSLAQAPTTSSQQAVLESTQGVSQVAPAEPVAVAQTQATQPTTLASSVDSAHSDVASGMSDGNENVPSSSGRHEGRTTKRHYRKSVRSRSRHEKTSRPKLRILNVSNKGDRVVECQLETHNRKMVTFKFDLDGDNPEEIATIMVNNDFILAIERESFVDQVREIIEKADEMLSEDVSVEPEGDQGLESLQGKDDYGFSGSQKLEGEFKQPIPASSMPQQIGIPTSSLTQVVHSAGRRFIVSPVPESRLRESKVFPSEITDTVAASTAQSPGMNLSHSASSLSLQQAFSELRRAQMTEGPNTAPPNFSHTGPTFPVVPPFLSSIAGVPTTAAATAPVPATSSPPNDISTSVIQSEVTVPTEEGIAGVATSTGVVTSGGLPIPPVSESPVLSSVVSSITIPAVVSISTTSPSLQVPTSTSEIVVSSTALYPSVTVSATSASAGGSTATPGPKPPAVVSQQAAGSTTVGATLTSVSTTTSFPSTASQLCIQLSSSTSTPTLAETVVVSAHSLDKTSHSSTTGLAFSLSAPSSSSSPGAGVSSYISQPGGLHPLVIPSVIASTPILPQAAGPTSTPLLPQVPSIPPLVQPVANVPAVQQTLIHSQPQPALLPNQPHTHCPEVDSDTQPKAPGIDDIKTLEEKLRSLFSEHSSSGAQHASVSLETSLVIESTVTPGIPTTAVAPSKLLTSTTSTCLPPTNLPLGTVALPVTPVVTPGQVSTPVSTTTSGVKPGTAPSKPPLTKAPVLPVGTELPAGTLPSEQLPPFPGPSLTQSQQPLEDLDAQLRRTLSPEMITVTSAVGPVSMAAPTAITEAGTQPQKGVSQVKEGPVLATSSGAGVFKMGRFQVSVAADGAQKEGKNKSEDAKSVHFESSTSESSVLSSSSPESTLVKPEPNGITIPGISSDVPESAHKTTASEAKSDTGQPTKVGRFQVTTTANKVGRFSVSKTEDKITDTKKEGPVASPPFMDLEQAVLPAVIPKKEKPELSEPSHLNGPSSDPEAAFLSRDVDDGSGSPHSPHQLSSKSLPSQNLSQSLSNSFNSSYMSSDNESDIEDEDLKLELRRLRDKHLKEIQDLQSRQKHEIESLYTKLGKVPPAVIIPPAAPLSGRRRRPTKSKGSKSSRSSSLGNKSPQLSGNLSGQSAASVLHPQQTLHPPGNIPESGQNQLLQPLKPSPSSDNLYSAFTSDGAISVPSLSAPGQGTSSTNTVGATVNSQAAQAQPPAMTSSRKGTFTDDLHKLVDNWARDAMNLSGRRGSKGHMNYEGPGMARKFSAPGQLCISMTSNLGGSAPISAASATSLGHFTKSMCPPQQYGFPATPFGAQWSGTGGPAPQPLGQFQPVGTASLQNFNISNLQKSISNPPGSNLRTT

O=C(Nc1ccc(Oc2ccc(F)cc2)cc1)N1CCc2ncccc2[C@H]1c1ccc(F)cc1 [BAY-897]
residual activity [1]: 96% | residual activity [2]: 100% | residual activity [3]: 100% | residual activity [4]: 80% | residual activity [5]: 100% | inhibition [6]: 8.47% | residual activity [7]: 95% | residual activity [8]: 100% | residual activity [9]: 100% | residual activity [10]: 97% | residual activity [11]: 100% | inhibition [12]: 16.9% | residual activity [13]: 90% | inhibition [14]: 26.9% | residual activity [15]: 100% | residual activity [16]: 50% | residual activity [17]: 68% | residual activity [18]: 100% | residual activity [19]: 86% | residual activity [20]: 100% | residual activity [21]: 95% | residual activity [22]: 100% | residual activity [23]: 94% | residual activity [24]: 81% | residual activity [25]: 82% | residual activity [26]: 82% | residual activity [27]: 100% | residual activity [28]: 91% | inhibition [29]: 68.4% | residual activity [30]: 98% | residual activity [31]: 87% | residual activity [32]: 88% | residual activity [33]: 98% | residual activity [34]: 100% | residual activity [35]: 100% | residual activity [36]: 95% | residual activity [37]: 100% | residual activity [38]: 92% | inhibition [39]: 52.4% | residual activity [40]: 100% | residual activity [41]: 96% | residual activity [42]: 100% | residual activity [43]: 100% | inhibition [44]: 21.1%

O=C(Nc1cnc(Oc2ccc(F)cc2)nc1)N1CCc2ncccc2[C@@H]1c1ccc(F)cc1 [BAY-899]
residual activity [1]: 100% | residual activity [2]: 100% | residual activity [3]: 100% | residual activity [4]: 87% | residual activity [5]: 100% | inhibition [6]: 8.55% | residual activity [7]: 78% | residual activity [8]: 89% | residual activity [9]: 100% | residual activity [10]: 100% | residual activity [11]: 85% | inhibition [12]: -3.59% | residual activity [13]: 91% | inhibition [14]: 19.4% | residual activity [15]: 100% | residual activity [16]: 69% | residual activity [17]: 75% | residual activity [18]: 100% | residual activity [19]: 85% | residual activity [20]: 97% | residual activity [21]: 70% | residual activity [22]: 100% | residual activity [23]: 79% | residual activity [24]: 71% | residual activity [25]: 97% | residual activity [26]: 77% | residual activity [27]: 89% | residual activity [28]: 89% | inhibition [29]: 18.3% | residual activity [30]: 96% | residual activity [31]: 100% | residual activity [32]: 100% | residual activity [33]: 100% | residual activity [34]: 100% | residual activity [35]: 100% | residual activity [36]: 93% | residual activity [37]: 89% | residual activity [38]: 82% | inhibition [39]: 37.6% | residual activity [40]: 93% | residual activity [41]: 70% | residual activity [42]: 85% | residual activity [43]: 92% | inhibition [44]: 25.5%
